Data: PubChem BioAssay AID330 (DTP/NCI, 2004)
Values joined by “and” are separate entries in the source; they are usually repeats but may differ in a detail not shown here. Identical values can stand only once. Toxic doses and inconclusive results are not listed. How the source made its calls: active means survival T/C of 150% or more; inactive means T/C below 125% in these data.

Test system: P388 leukemia ip, CD2F1 mice, survival T/C
Experiment: NCI In Vivo Anticancer Drug Screen. Data for tumor model P388 Leukemia (intraperitoneal) in CD2F1 (CDF1) mice
Conditions: endpoint: median survival time, higher = longer survival
Summary of the method: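 Mice carrying the transplanted tumor received test compound or vehicle. Survival was recorded in each group, and the value is the treated-group measurement divided by that of the vehicle-treated control group.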

[1] = dose: 50.0 mg/kg/injection, schedule: Q01DX009 (ip), vehicle: saline with Tween-80
[2] = dose: 100.0 mg/kg/injection, schedule: Q01DX009 (ip), vehicle: saline with Tween-80
[3] = dose: 200.0 mg/kg/injection, schedule: Q01DX009 (ip), vehicle: saline with Tween-80
[4] = dose: 50.0 mg/kg/injection, schedule: Q01DX005 (ip), vehicle: Klucel (hydroxypropylcellulose) (HPC)
[5] = dose: 100.0 mg/kg/injection, schedule: Q01DX005 (ip), vehicle: Klucel (hydroxypropylcellulose) (HPC)
[6] = dose: 200.0 mg/kg/injection, schedule: Q01DX005 (ip), vehicle: Klucel (hydroxypropylcellulose) (HPC)
[7] = dose: 60.0 mg/kg/injection, schedule: Q01DX005 (ip), vehicle: Klucel (hydroxypropylcellulose) (HPC)
[8] = dose: 120.0 mg/kg/injection, schedule: Q01DX005 (ip), vehicle: Klucel (hydroxypropylcellulose) (HPC)
[9] = dose: 240.0 mg/kg/injection, schedule: Q01DX005 (ip), vehicle: Klucel (hydroxypropylcellulose) (HPC)

Measured: T/C

COc1ccc2sc(C)cc(=O)c2c1
inactive: dose: 50.0 mg/kg/injection, schedule: Q01DX009 (ip), vehicle: saline + Tween-80 + alcohol 106 % of control | dose: 100.0 mg/kg/injection, schedule: Q01DX009 (ip), vehicle: saline + Tween-80 + alcohol 109 % of control | dose: 200.0 mg/kg/injection, schedule: Q01DX009 (ip), vehicle: saline + Tween-80 + alcohol 109 % of control

CN=C(NCCc1ccccc1)c1ccc(NC(=O)c2ccc(C(=O)Nc3ccc(C(=NC)NCCc4ccccc4)cc3)cc2)cc1
inactive: dose: 3.12 mg/kg/injection, schedule: Q01DX005 (ip), vehicle: Klucel (hydroxypropylcellulose) (HPC) 114 % of control | dose: 6.25 mg/kg/injection, schedule: Q01DX005 (ip), vehicle: Klucel (hydroxypropylcellulose) (HPC) 116 % of control and 122 % of control
active: dose: 12.5 mg/kg/injection, schedule: Q01DX005 (ip), vehicle: Klucel (hydroxypropylcellulose) (HPC) 154 % of control

O=C(NC1CCCCC1)ON1C(=O)C2C3C=CC(C3)C2C1=O (stereo unspecified)
inactive: dose: 3.12 mg/kg/injection, schedule: Q01DX009 (ip), vehicle: saline with Tween-80 101 % of control and 98 % of control | dose: 6.25 mg/kg/injection, schedule: Q01DX009 (ip), vehicle: saline with Tween-80 106 % of control and 110 % of control and 113 % of control | dose: 12.5 mg/kg/injection, schedule: Q01DX009 (ip), vehicle: saline with Tween-80 106 % of control and 110 % of control | dose: 25.0 mg/kg/injection, schedule: Q01DX009 (ip), vehicle: saline with Tween-80 113 % of control and 117 % of control and 98 % of control | [1] 119 % of control

O=C1NC(=O)C(C2CCOC2=O)N1 (stereo unspecified)
inactive: [1] 106 % of control | [2] 102 % of control | [3] 106 % of control

O=C(/C=C/c1ccc(OCC2CO2)cc1)c1cc2ccccc2nc1Cl (stereo unspecified)
inactive: dose: 100.0 mg/kg/injection, schedule: Q04DX002 (ip), vehicle: saline with Tween-80 100 % of control | dose: 200.0 mg/kg/injection, schedule: Q04DX002 (ip), vehicle: saline with Tween-80 100 % of control | dose: 400.0 mg/kg/injection, schedule: Q04DX002 (ip), vehicle: saline with Tween-80 100 % of control

CC(OP(=O)(O)O)C(N)C(=O)O (stereo unspecified)
inactive: dose: 50.0 mg/kg/injection, schedule: Q01DX005 (ip), vehicle: saline 97 % of control | dose: 100.0 mg/kg/injection, schedule: Q01DX005 (ip), vehicle: saline 93 % of control | dose: 200.0 mg/kg/injection, schedule: Q01DX005 (ip), vehicle: saline 98 % of control

Cc1nnsc1-c1nc2ccccc2[nH]1
inactive: [4] 95 % of control | [5] 102 % of control | [6] 104 % of control

O=C(O)c1cc2ccccc2c(N=Nc2cc(C(F)(F)F)ccc2Cl)c1O
inactive: dose: 12.5 mg/kg/injection, schedule: Q01DX005 (ip), vehicle: saline with Tween-80 102 % of control | dose: 25.0 mg/kg/injection, schedule: Q01DX005 (ip), vehicle: saline with Tween-80 100 % of control | dose: 50.0 mg/kg/injection, schedule: Q01DX005 (ip), vehicle: saline with Tween-80 98 % of control and 100 % of control | dose: 200.0 mg/kg/injection, schedule: Q01DX005 (ip), vehicle: saline with Tween-80 86 % of control

CN(C)c1c2c(oc(=O)c1Cl)-c1ccccc1OCC2
inactive: [7] 101 % of control | [8] 103 % of control | [9] 107 % of control

COc1cc2c(cc1OC)C1CC(=O)C(CC(C)C)CN1CC2 (stereo unspecified)
inactive: dose: 12.5 mg/kg/injection, schedule: Q01DX009 (ip), vehicle: Klucel (hydroxypropylcellulose) (HPC) 100 % of control | dose: 25.0 mg/kg/injection, schedule: Q01DX009 (ip), vehicle: Klucel (hydroxypropylcellulose) (HPC) 100 % of control | dose: 50.0 mg/kg/injection, schedule: Q01DX009 (ip), vehicle: Klucel (hydroxypropylcellulose) (HPC) 103 % of control

CCCc1c(Cl)[nH]c(=O)n(C)c1=O
inactive: [4] 111 % of control | [5] 111 % of control | [6] 97 % of control

O=C(Nc1ccc(Cl)cc1)Nc1nnc(-c2cccc(Cl)c2)o1
inactive: dose: 7.5 mg/kg/injection, schedule: Q01DX005 (ip), vehicle: saline with Tween-80 95 % of control | dose: 15.0 mg/kg/injection, schedule: Q01DX005 (ip), vehicle: saline with Tween-80 90 % of control and 93 % of control | dose: 60.0 mg/kg/injection, schedule: Q01DX005 (ip), vehicle: saline with Tween-80 89 % of control | dose: 240.0 mg/kg/injection, schedule: Q01DX005 (ip), vehicle: saline with Tween-80 91 % of control

CCOC(=O)C1c2cccc(O)c2CCN1C(C)=O (stereo unspecified)
inactive: [7] 100 % of control | [8] 100 % of control | [9] 98 % of control

COC(=O)/C=C1\Sc2cc(F)ccc2NC1=O
inactive: [1] 92 % of control | [2] 98 % of control | [3] 100 % of control
